The target of the experiment is T1, OTR (Homo sapiens, UniProt P30559).
T1 construct: expressed in transfected cells; host or cells: OTR/HEK293 stably transfected cell line
T1 sequence (P30559 1-389): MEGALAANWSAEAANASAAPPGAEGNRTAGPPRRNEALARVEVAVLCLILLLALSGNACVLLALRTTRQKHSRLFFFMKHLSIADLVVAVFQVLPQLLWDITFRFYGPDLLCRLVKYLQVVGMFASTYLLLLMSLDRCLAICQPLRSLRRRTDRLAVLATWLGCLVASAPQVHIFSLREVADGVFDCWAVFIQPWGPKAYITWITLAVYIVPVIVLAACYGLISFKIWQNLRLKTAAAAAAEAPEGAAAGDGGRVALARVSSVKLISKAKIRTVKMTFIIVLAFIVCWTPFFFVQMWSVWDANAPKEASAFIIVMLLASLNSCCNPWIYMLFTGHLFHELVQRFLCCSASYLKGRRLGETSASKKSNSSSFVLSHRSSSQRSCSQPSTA
Description: Ca2+ mobilization in cells stably expressing OTR (FLIPR, antagonist mode). It is filed as cell-based. As to conditions: OTR/HEK293 stably transfected cell line. From the text:
Test Example 1. Determination of the Effect of the Compound of the Present Disclosure on Ca^2+ Mobilization in Cells Stably Expressing OTR
To measure the antagonistic effect of the compound of the present disclosure on OTR activity expressed in the OTR/HEK293 stably transfected cell line.
• DMEM medium (Invitrogen, 11965) • F12 medium (Invitrogen, 11765) • Fetal bovine serum (Excell, FSP500) • Geneticin (Invitrogen, 10131) • Penicillin/Streptomycin (Invitrogen, SV30010) • Fluo-4 Direct kit (Invitrogen, F10471) • 384-well cell plate (Greiner, 781090) • 384-well compound plate (Greiner, 781280)
• FLIPR instrument (Molecular Device) • EHCO instrument (Labcyte) • Cell counter (Beckman, Vi-cell XR)
The cultured cells were washed twice with pre-heated DPBS and digested with appropriate amount of trypsin at 37° C. for 1 minute, and then appropriate amount of culture medium was added to terminate digestion. The cells were centrifuged at 1000 rpm for 5 minutes. The supernatant was gently discarded without disturbing the cell pellet at the bottom. The cells were resuspended in culture medium and 1 mL was taken out for cell counting and viability assessment using Vi-CELL™. The cells were diluted to 1×10^6 cells/mL (20,000 cells/20 μL) with culture medium, seeded into a 384-well cell plate and incubated at 37° C. with 5% CO2 for 16-20 h.
Formulation of 250 mM Probenecid solution: according to the kit instructions, 1 mL of FLIPR buffer salt solution was added to 77 mg of probenecid, prepared fresh just before use. Formulation of Fluo-4 Direct™ (2×, 8 μM) loading buffer: according to the kit instructions, the required amount of Fluo-4 Direct™ was taken out and thawed in advance, 10 mL of FLIPR buffer salt solution and 0.2 mL of 250 mM Probenecid solution were added to each tube, and the mixture was vortexed in the dark for >5 minutes, prepared fresh just before use.
Preparation of agonist reference compound plate: the agonist was diluted 3-fold in 10 points using ECHO, and 750 nL was transferred to the corresponding compound plate using ECHO.
Preparation of reference and test compound plates: the test compound was diluted 3-fold in 10 points with ECHO, and 900 nL was transferred to the corresponding compound plate; the reference compound was diluted 3-fold in 10 points with assay buffer salt solution, and 30 μL was transferred to the compound plate.
30 μL of assay buffer salt solution was added to the corresponding compound plate, and the mixture was centrifuged at 1000 rpm for 1 minute.
The cell plate prepared the day before was taken out of the incubator, and 20 μL of 2×Fluo-4 Direct™ buffer was added to each well, with a total volume of 40 μL.
The plate was incubated in an incubator at 37° C. with 5% CO2 for 50 minutes, and then placed at room temperature for 10 minutes.
The compound plate, cell plate, and pipette tips were placed into the instrument.
For the agonist reference compound plate: the FLIPR instrument software was run, 10 μL of the pre-determined concentration of agonist reference compound was added to the cell plate following the preset protocol, and the fluorescence signal was read. After reading, the data were exported to calculate the EC80 for each cell line, and the agonist at 6×EC80 concentration was prepared.
For the compound plate: the FLIPR instrument software was run, 10 μL of the pre-determined concentration of test compound and the reference compound were added to the cell plate following the preset protocol, and the fluorescence signal was read. 10 μL of the reference compound agonist at 6×EC80 concentration was added to the cell plate, and the fluorescence signal was read. For antagonist detection of the compound, the data were exported using the “Max-Min” and “Read 1 to Maximum allowed” methods in the software, and the data were fitted using Prism.
Usually IC50 stands for the midpoint of a concentration-inhibition curve. A high value points to a need for much substance. Regarding `CON=C1CN(C(=O)c2ccc(-c3ccccc3C)cc2)C2COCCN12` (mixture of isomers) [Example C0033, (EZ)-(3-(Methoxyimino)hexahydro-1H-imidazo[2,1-c][1,4]oxazin-1-yl)(2′-methyl-[1, 1′-biphenyl]-4-yl)methanone], the IC50 is 1900 nM.

`CO/N=C1/CC2(CO)CCC1N2C(=O)c1ccc(-c2ccccc2C)cc1` (single isomer, unassigned) [Example A0087] displayed an IC50 of 1080 nM.

Take `CON=C1CC(C(=O)NCC(O)c2ccccc2)N(C(=O)c2ccc(-c3cccc(C#N)c3C)cc2)C1` (single isomer, unassigned) [Example A0229, (25, E)-1-(3′-Cyano-2′-methyl-[1,1′-biphenyl]-4-carbonyl)-N-(2-hydroxy-2-phenethyl)-4-(methoxyimino)pyrrolidine-2-carboxamide]: the midpoint of inhibition, the IC50, lay at 122 nM.

As to `CON=C1CC(C(=O)NCC(O)c2ccccc2)N(C(=O)c2ccc(-c3cccc(C#N)c3C)cc2)C1` (single isomer, unassigned) [Example A0233, (25, Z)-1-(3′-Cyano-2′-methyl-[1,1′-biphenyl]-4-carbonyl)-N-(2-hydroxy-2-phenethyl)-4-(methoxyimino)pyrrolidine-2-carboxamide], the IC50 stood at 48.3 nM.

In turn, `CON=C1C[C@@H](CNC(C)=O)N(C(=O)c2ccc(-c3ccccc3C)cc2)C1` (single isomer, unassigned) [Example C0006] registered an IC50 of 1740 nM.

For `CO/N=C1/C[C@@H](CO)N(C(=O)c2ccc(-c3ccc(C#N)cc3C)cc2)C1` (single isomer, unassigned) [Example C0093], the IC50 was found to be 1140 nM.

Take `CON=C1C[C@@H](CO)N(C(=O)c2ncc(-c3cccc(C)c3C)nn2)C1` (single isomer, unassigned) [Example C0109]: the midpoint of inhibition, the IC50, lay at 367 nM.

With `CO/N=C1\C[C@@H]([C@H](C)O)N(C(=O)c2ccc(-c3cccc(C#N)c3C)cc2)C1` (single isomer, unassigned) [Example C0110], 98.1 nM corresponded to half-maximal inhibition (IC50).

Compound `CON=C1C[C@@H](CO)N(C(=O)c2ccc3c(c2)COCc2c(C#N)cccc2-3)C1` (single isomer, unassigned) [Example C0142, (Z/E)-9-(2-(Hydroxymethyl)-4-(methoxyimino)pyrrolidine-1-carbonyl)-5,7-dihydrodibenzo[c,e]oxepine-4-carbonitrile] registered an IC50 of 2940 nM.

The compound `CO/N=C1\CN(C(=O)c2ccc(-c3ccccc3C)cc2)C2(COC2)C1` [Example A0041, (Z)-(7-(Methoxyimino)-2-oxa-5-azaspiro[3.4]octan-5-yl)(2′-methyl-[1, 1′-biphenyl]-4-yl)methanone] registered a half-maximal inhibitory concentration (IC50) of 575 nM.

As to `CON=C1C[C@@H](C2(O)CC2)N(C(=O)c2ccc(-c3ccccc3C)cc2)C1` [Example A0066, (S, EZ)-(2-(1-Hydroxycyclopropyl)-4-(methoxyimino)pyrrolidin-1-yl)(2′-methyl-[1,1′-biphenyl]-4-yl)methanone], the IC50 was 197 nM.

`CO/N=C1\CN(C(=O)c2ccc(-c3ccccc3C)cc2)C(CO)(CO)C1` [Example A0083, (Z)-(2,2-Bis(hydroxymethyl)-4-(methoxyimino)pyrrolidin-1-yl)(2′-methyl-[1, 1′-biphenyl]-4-yl)methanone] displayed a concentration for half-maximal inhibition (IC50) of 539 nM.

Turning to `CON=C1C[C@@H](c2nc3ccccc3o2)N(C(=O)c2ccc(-c3ccccc3C)cc2)C1` [Example A0086, (S, EZ)-(2-(Benzo[d]oxazol-2-yl)-4-(methoxyimino)pyrrolidin-1-yl)(2′-methyl-[1, 1′-biphenyl]-4-yl)methanone], inhibition was half-maximal at 237 nM (IC50).

In turn, `CO/N=C1/CN(C(=O)c2ccc(-c3ccccc3C)cc2)C2(COC2)C1` [Example A0112, (E)-(7-(Methoxyimino)-2-oxa-5-azaspiro[3.4]octan-5-yl)(2′-methyl-[1, 1′-biphenyl]-4-yl)methanone] displayed an IC50 of 815 nM.

On to `CO/N=C1/C[C@@H](CO)N(C(=O)c2ccc(-c3cccc(C)c3C#N)cc2)C1` [Example A0130, (S, Z)-4′-(2-(Hydroxymethyl)-4-(methoxyimino)pyrrolidine-1-carbonyl)-3-methyl-[1,1′-biphenyl]-2-carbonitrile], for which the IC50 is 647 nM.

In turn, `CO/N=C1/C[C@@H](CO)N(C(=O)c2ccc(-c3cccc(C)c3C)cc2C#N)C1` [Example A0131, 5-(2,3-Dimethylphenyl)-2-[(2S, 4Z)-2-(hydroxymethyl)-4-(methoxyimino)pyrrolidine-1-carbonyl]benzonitrile] showed an IC50 of 172 nM.

Take `CO/N=C1/C[C@@H](CO)N(C(=O)c2cnc(-c3cccc(C)c3C)c(C(F)(F)F)n2)C1` [Example A0137]: the IC50 came to 153 nM.

`CO/N=C1\C[C@@H](CO)N(C(=O)c2ccc(-c3cccc(C)c3C#N)cc2)C1` [Example A0144, (S, E)-4′-(2-(Hydroxymethyl)-4-(methoxyimino)pyrrolidine-1-carbonyl)-3-methyl-[1,1′-biphenyl]-2-carbonitrile]: the IC50 worked out at 1110 nM.

`CO/N=C1/C[C@@H](CO)N(C(=O)c2ccc(-c3cccc(C)c3C)c(OC3COC3)c2)C1` [Example A0147, (S, Z)-(2′, 3′-Dimethyl-2-(oxetan-3-yloxy)-[1, 1′-biphenyl]-4-yl)(2-(hydroxymethyl)-4-(methoxyimino)pyrrolidin-1-yl)methanone] gave an IC50 of 23.5 nM.

Compound `COCCOc1cc(C(=O)N2C/C(=N\OC)C[C@H]2CO)ccc1-c1cccc(C)c1C` [Example A0149, (S, Z)-(2-(Hydroxymethyl)-4-(methoxyimino)pyrrolidin-1-yl)(2-(2-methoxyethoxy)-2′, 3′-dimethyl-[1,1′-biphenyl]-4-yl)methanone] came in with an IC50 of 17.1 nM.

Regarding `CO/N=C1\C[C@@H](CO)N(C(=O)c2ccc(-c3cccc(C)c3C)cc2C#N)C1` [Example A0153, 5-(2,3-Dimethylphenyl)-2-[(2S, 4E)-2-(hydroxymethyl)-4-(methoxyimino)pyrrolidine-1-carbonyl]benzonitrile], the IC50 came to 485 nM.

`CO/N=C1/C[C@@H](CO)N(C(=O)c2ccc(-c3cccc(C)c3C)c(C(=O)N3CCOCC3)c2)C1` [Example A0158, (25, 4Z)-(2′, 3′-Dimethyl-2-(morpholine-4-carbonyl)-[1, 1′-biphenyl]-4-yl)(2-(hydroxymethyl)-4-(methoxyimino)pyrrolidin-1-yl)methanone] came in with an IC50 of 1520 nM.

`CO/N=C1/C[C@@H](CO)N(C(=O)c2ccc(-c3cccc(C#N)c3C)c3c2OCC(=O)N3C)C1` [Example A0163, (S, Z)-3-(8-(2-(Hydroxymethyl)-4-(methoxyimino)pyrrolidine-1-carbonyl)-4-methyl-3-oxo-3,4-dihydro-2H-benzo[b][1,4]oxazin-5-yl)-2-methylbenzonitrile] gave an IC50 of 202 nM.

`CO/N=C1\C[C@@H](CO)N(C(=O)c2ccc(-c3cccc(C)c3C)c(C(=O)NC3COC3)c2)C1` [Example A0179, (S, E)-4-(2-(Hydroxymethyl)-4-(methoxyimino)pyrrolidine-1-carbonyl)-2′, 3′-dimethyl-N-(oxetan-3-yl)-[1,1′-biphenyl]-2-carboxamide] had an IC50 of 165 nM.

(Values after US20260248763A1 (BIO GENUINE (SHANGHAI) BIOTECH CO., LTD, priority 2023, published 2026).)
